Experimental data as given in US11697636B2, “Substituted benzamides” (Hoffmann-La Roche Inc., priority 2009, dated 2023).
Structures can show the parent of a compound that is named as a salt.

Molecular target: mouse TAAR1 (Mus musculus (Mouse), UniProt Q923Y8)
Assay: Radioligand binding assay on mouse TAAR1
Details: mouse TAAR1, HEK-293 membranes; first value of mouse/rat pair
Experimental: For the construction of expression plasmids the coding sequences of human, rat and mouse TAAR 1 were amplified from genomic DNA essentially as described by Lindemann et al.. […] PCR products were subcloned into the pIRESneo2 vector (BD Clontech, Palo Alto, Calif.), and expression vectors were sequence verified before introduction in cell lines.
HEK293 cells (ATCC #CRL-1573) were cultured essentially as described by Lindemann et al. (2005). […] After a culture period of about 10 d clones were isolated, expanded and tested for responsiveness to trace amines (all compounds purchased from Sigma) with the cAMP Biotrak Enzyme immunoassay (EIA) System (Amersham) following the non-acetylation EIA procedure provided by the manufacturer.
Radioligand Binding Assay on Mouse TAAR1
Membrane Preparation and Radioligand Binding.
HEK-293 cells stably expressing mouse TAAR1 were maintained at 37° C. and 5% CO2 in DMEM high glucose medium, containing fetal calf serum (10%, heat inactivated for 30 min at 56° C.), penicillin/streptomycin (1%), and 375 μg/ml geneticin (Gibco). Cells were released from culture flasks using trypsin/EDTA, harvested, washed twice with ice-cold PBS (without Ca^2+ and Mg^2+), pelleted at 1′000 rpm for 5 min at 4° C., frozen and stored at −80° C. […] With each new membrane batch the dissociation constant (Kd) was determined via a saturation curve. […]

Chain of mouse TAAR1 (Q923Y8 whole entry): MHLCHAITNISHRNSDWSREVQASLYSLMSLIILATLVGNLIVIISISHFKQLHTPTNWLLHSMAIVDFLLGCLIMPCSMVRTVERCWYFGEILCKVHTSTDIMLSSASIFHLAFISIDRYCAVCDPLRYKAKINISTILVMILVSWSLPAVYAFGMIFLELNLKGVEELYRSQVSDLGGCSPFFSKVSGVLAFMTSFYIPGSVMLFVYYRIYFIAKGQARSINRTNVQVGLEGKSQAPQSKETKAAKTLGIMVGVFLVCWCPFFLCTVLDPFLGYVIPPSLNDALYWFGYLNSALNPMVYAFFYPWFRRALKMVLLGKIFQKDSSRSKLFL

Q: With O=C(Nc1ccccc1)Nc1ccc(C2CCNC2)cc1 (racemic) [Example 6, (RS)-1-Phenyl-3-(4-pyrrolidin-3-yl-phenyl)-urea hydrochloride] as the compound, how does the Ki read?
A: Its Ki is 32 µM.
